# According to PMC10007777, “Glycyrrhizic acid inhibits myeloid differentiation of hematopoietic stem cells by binding S100 calcium binding protein A8 to improve cognition in aged mice” (Immunity & Ageing : I & A, 2023):
# Molecular target: T1, S100A8 protein (S100 calcium binding protein A8; MRP-8) (Mus musculus, UniProt P27005)
# T1 construct: amine-coupled to CM5 (COOH) chip
# T1 sequence (P27005 2-89): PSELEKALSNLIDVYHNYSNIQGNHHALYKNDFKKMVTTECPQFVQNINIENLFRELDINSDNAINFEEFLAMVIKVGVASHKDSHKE
# Assay: SPR (BIAcore […]), S100A8 immobilized
# Details: 20 mM Tris-HCl, 150 mM NaCl, 1 mM TCEP, pH 7.2, 25 C; GA 0-500 uM
smiles,measurement,value
"CC1(C)[C@@H](O[C@H]2O[C@H](C(=O)O)[C@@H](O)[C@H](O)[C@H]2O[C@@H]2O[C@H](C(=O)O)[C@@H](O)[C@H](O)[C@H]2O)CC[C@]2(C)[C@H]3C(=O)C=C4[C@@H]5C[C@@](C)(C(=O)O)CC[C@]5(C)CC[C@@]4(C)[C@]3(C)CC[C@@H]12 [GA, Glycyrrhizic acid]",binding (SPR),The experimental results show binding between GA and S100A8 protein (Fig. 5E).
